Experimental data published in ChEMBL document CHEMBL3822388, “In vivo phenotypic drug discovery: applying a behavioral assay to the discovery and optimization of novel antipsychotic agents” (Medchemcomm, 2016).
Blank lines part the entries; values can stand above or below the compound they belong to. Active and inactive are the calls of the source. The calls are words filed in the database; no cut-off is given here.

Assays:
[1] = tested on: Mus musculus; assay: Antipsychotic activity in ip dosed mouse administered 15 mins prior to testing by SmartCube automated system based method; assay type: functional; conditions: for minimal effective dose: Mus musculus, ip, read-out: MED
[2] = Chemical stability of the compound in 20 mM NH4Ac buffer solution at pH 7.1 after 96 hrs by HPLC analysis; assay type: physicochemical; conditions: pH 7.1, 96 h
[3] = Drug metabolism in mouse liver microsomes assessed as formation of 4-(3,4-dimethylthiophen-2-yl)pyrimidine at 3 uM in presence of NADPH by LC-MS/MS analysis; assay type: ADME
[4] = tested on: Liver microsome; assay: Drug metabolism in human liver microsomes assessed as formation of 4-(3,4-dimethylthiophen-2-yl)pyrimidine at 3 uM in presence of NADPH by LC-MS/MS analysis; assay type: ADME
[5] = Chemical stability of the compound in 0.01 M HCl at pH 2 after 96 hrs by HPLC analysis; assay type: physicochemical; conditions: buffer, pH 2, 96 h
[6] = tested on: Mus musculus; assay: Antipsychotic activity in mouse at 30 mg/kg, ip administered 15 mins prior to testing by SmartCube automated system based method relative to standard compound; assay type: functional
[7] = biological target: Cytochrome P450 2C9 (Homo sapiens, UniProt P11712); assay: Inhibition of CYP2C9 in human liver microsomes assessed as reduction in tolbutamide 4-hydroxylation by LC-MS/MS analysis; assay type: ADME
Sequence of Cytochrome P450 2C9 (P11712 whole entry): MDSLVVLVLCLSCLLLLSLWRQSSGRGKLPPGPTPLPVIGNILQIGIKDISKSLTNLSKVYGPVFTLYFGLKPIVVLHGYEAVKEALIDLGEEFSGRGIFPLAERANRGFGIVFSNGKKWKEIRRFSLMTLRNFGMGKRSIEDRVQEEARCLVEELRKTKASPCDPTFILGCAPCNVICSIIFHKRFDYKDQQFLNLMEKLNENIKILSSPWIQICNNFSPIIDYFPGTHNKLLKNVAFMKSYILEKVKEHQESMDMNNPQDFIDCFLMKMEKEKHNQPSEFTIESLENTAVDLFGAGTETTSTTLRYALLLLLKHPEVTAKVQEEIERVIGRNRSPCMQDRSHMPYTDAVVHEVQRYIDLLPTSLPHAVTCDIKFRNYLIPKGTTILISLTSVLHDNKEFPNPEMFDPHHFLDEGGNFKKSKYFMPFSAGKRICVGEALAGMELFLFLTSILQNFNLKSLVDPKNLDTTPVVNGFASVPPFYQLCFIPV

[8] = biological target: 5-hydroxytryptamine receptor 6 (Homo sapiens) (UniProt P50406); assay: Displacement of [3H]LSD from human recombinant 5-HT6 receptor expressed in CHO cells at 10 uM after 120 mins by scintillation counting analysis; assay type: cell-based
Sequence of 5-hydroxytryptamine receptor 6 (Homo sapiens) (P50406 whole entry): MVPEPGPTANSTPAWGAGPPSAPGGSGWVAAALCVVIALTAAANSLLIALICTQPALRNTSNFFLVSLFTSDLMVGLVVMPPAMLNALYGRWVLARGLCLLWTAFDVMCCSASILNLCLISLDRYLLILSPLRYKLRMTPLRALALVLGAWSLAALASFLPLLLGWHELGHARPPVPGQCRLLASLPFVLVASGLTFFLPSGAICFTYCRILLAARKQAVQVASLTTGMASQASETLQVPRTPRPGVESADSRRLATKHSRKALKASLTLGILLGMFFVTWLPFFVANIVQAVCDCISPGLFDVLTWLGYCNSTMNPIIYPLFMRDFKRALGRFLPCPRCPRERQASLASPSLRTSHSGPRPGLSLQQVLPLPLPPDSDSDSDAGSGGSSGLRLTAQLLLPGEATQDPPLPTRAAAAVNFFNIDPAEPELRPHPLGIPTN

[9] = biological target: Cytochrome P450 2D6 (Homo sapiens, UniProt P10635); assay: Inhibition of CYP2D6 in human liver microsomes assessed as reduction in dextromethorphan o-demethylation by LC-MS/MS analysis; assay type: ADME
[10] = Half life in rat liver microsomes at 3 uM in presence of NADPH by LC-MS/MS analysis; assay type: ADME
[11] = tested on: Liver microsome; assay: Drug metabolism in human liver microsomes assessed as formation of 4-(2-methylbenzo[b]thiophen-3-yl)pyrimidineat 3 uM in presence of NADPH by LC-MS/MS analysis; assay type: ADME
[12] = biological target: D(1A) dopamine receptor (Homo sapiens) (UniProt P21728); assay: Displacement of [3H]SCH 23390 from human recombinant D1 receptor expressed in CHO cells at 10 uM after 60 mins by scintillation counting analysis; assay type: cell-based
Sequence of D(1A) dopamine receptor (Homo sapiens) (P21728 whole entry): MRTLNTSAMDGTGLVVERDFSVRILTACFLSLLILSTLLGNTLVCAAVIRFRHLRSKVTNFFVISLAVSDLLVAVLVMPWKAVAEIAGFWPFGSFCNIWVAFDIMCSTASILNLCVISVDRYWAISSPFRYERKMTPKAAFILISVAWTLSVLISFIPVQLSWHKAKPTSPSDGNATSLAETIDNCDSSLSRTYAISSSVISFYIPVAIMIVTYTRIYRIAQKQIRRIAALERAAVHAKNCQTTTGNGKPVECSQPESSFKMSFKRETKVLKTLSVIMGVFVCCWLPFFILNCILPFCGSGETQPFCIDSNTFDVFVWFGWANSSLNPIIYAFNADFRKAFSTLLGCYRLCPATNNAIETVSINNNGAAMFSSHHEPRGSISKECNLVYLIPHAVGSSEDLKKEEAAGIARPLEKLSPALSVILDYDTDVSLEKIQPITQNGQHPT

[13] = Half life in human liver microsomes at 3 uM in presence of NADPH by LC-MS/MS analysis; assay type: ADME
[14] = biological target: D(2) dopamine receptor (Homo sapiens) (UniProt P14416); assay: Displacement of [3H]methyl-spiperone from human recombinant D2 receptor expressed in HEK293 cells at 10 uM after 60 mins by scintillation counting analysis; assay type: cell-based
Sequence of D(2) dopamine receptor (Homo sapiens) (P14416 whole entry): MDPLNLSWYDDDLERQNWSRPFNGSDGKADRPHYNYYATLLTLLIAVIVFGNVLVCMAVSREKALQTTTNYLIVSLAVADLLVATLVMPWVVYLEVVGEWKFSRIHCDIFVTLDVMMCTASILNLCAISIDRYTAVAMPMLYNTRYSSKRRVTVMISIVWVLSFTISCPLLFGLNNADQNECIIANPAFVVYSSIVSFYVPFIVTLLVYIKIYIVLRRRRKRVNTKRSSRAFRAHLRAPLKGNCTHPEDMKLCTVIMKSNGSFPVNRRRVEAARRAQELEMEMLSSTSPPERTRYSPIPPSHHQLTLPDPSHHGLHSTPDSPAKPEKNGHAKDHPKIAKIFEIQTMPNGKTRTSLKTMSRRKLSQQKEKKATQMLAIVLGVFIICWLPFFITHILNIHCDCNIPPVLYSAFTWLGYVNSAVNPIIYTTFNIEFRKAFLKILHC

[15] = Fraction unbound in mouse plasma at 5 uM by LC-MS/MS based equilibrium dialysis method; assay type: ADME, cell-free
[16] = tested on: Mus musculus; assay: Effect on basal locomotor activity in C57Bl/6J mouse at 10 to 30 mg/kg, po; assay type: ADME, organism-based; conditions: in vivo
[17] = biological target: Adrenergic receptor alpha-2 (Rattus norvegicus) (UniProt P22086+P19328+P22909); assay: Displacement of [3H]RX 821002 from rat cerebral cortex adrenergic alpha2 receptor at 10 uM after 60 mins by scintillation counting analysis; assay type: tissue-based
[18] = Drug metabolism in mouse liver microsomes assessed as formation of 4-(2-methylbenzo[b]thiophen-3-yl)pyrimidineat 3 uM in presence of NADPH by LC-MS/MS analysis; assay type: ADME
[19] = biological target: Cytochrome P450 3A4 (Homo sapiens, UniProt P08684); assay: Inhibition of CYP3A4 in human liver microsomes assessed as reduction in midazolam 1-hydroxylation/testosterone 6beta-hydroxylation by LC-MS/MS analysis; assay type: ADME
[20] = tested on: Mus musculus; assay: Antipsychotic activity in mouse at 10 mg/kg, ip administered 15 mins prior to testing by SmartCube automated system based method relative to standard compound; assay type: functional, organism-based
[21] = biological target: 5-hydroxytryptamine receptor 7 (Homo sapiens) (UniProt P34969); assay: Displacement of [3H]LSD from human recombinant 5-HT7 receptor expressed in CHO cells at 10 uM after 120 mins by scintillation counting analysis; assay type: cell-based
Sequence of 5-hydroxytryptamine receptor 7 (Homo sapiens) (P34969 whole entry): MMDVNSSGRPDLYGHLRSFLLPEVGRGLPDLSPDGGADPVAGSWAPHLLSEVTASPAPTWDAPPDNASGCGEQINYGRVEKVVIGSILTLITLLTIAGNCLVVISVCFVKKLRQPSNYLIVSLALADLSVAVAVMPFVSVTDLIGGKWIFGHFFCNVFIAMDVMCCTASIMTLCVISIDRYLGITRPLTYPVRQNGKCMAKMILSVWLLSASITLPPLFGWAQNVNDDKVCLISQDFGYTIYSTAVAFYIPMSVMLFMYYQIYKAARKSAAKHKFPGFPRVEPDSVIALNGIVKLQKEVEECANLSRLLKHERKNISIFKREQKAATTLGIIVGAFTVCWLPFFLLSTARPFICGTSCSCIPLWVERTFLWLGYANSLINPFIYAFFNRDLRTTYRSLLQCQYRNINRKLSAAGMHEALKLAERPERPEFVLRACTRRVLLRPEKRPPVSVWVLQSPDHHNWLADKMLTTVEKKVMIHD

[22] = biological target: Sodium-dependent serotonin transporter (Homo sapiens) (UniProt P31645); assay: Displacement of [3H]imipramine from human recombinant 5-HT transporter expressed in CHO cells at 10 uM after 60 mins by scintillation counting analysis; assay type: cell-based
Sequence of Sodium-dependent serotonin transporter (Homo sapiens) (P31645 whole entry, looked up): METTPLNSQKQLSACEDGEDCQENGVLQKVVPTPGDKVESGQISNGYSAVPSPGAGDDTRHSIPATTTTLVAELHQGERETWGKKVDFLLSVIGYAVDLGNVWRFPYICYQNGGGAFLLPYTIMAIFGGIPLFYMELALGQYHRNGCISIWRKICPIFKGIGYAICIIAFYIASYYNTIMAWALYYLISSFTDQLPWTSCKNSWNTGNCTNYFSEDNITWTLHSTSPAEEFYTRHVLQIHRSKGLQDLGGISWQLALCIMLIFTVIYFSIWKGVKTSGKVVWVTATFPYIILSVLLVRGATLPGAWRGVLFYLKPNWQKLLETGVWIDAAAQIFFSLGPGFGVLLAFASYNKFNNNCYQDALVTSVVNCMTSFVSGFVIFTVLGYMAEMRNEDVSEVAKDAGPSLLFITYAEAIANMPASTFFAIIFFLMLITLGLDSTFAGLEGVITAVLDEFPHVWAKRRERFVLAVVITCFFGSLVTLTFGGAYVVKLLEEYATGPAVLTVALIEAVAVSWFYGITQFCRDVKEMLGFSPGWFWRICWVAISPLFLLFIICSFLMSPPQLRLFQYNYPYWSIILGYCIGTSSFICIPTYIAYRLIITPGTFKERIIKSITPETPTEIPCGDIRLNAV

[23] = Fraction unbound in human plasma at 5 uM by LC-MS/MS based equilibrium dialysis method; assay type: ADME, cell-free
[24] = Half life in mouse liver microsomes at 3 uM in presence of NADPH by LC-MS/MS analysis; assay type: ADME
[25] = tested on: Mus musculus; assay: Antipsychotic-like activity in C57Bl/6J mouse model of schizophrenia assessed as reversal of phencyclidine-induced locomotor activity at 3 to 30 mg/kg, po dosed 30 mins before administration of PCP measured for 60 mins by open field test; assay type: functional, organism-based
[26] = tested on: Mus musculus; assay: Effect on basal locomotor activity in C57Bl/6J mouse at 3 mg/kg, po; assay type: ADME, organism-based; conditions: in vivo
[27] = biological target: Adrenergic receptor alpha-1 (Rattus norvegicus) (UniProt P15823+P23944+P43140); assay: Displacement of [3H]prazosin from rat cerebral cortex adrenergic alpha1 receptor at 10 uM after 60 mins by scintillation counting analysis; assay type: tissue-based
[28] = biological target: Voltage-gated inwardly rectifying potassium channel KCNH2 (Homo sapiens, UniProt Q12809); assay: Inhibition of human ERG; conditions: human
[29] = tested on: Mus musculus; assay: Antipsychotic activity in C57Bl/6J mouse model of schizophrenia assessed as increase in prepulse inhibition of acoustic startle at 3 to 10 mg/kg, po administered 30 mins prior to testing relative to vehicle-treated control; assay type: functional, organism-based
[30] = biological target: CYP1A (Homo sapiens, UniProt P04798+P05177); assay: Inhibition of CYP1A in human liver microsomes assessed as reduction in ethoxyresorufin o-deethylation by fluorescence assay; conditions: probe ethoxyresorufin (O-deethylation)
[31] = biological target: Sodium-dependent dopamine transporter (Homo sapiens) (UniProt Q01959); assay: Displacement of [3H]BTCP from human recombinant dopamine transporter expressed in CHO cells at 10 uM after 120 mins by scintillation counting analysis; assay type: cell-based
Sequence of Sodium-dependent dopamine transporter (Homo sapiens) (Q01959 whole entry): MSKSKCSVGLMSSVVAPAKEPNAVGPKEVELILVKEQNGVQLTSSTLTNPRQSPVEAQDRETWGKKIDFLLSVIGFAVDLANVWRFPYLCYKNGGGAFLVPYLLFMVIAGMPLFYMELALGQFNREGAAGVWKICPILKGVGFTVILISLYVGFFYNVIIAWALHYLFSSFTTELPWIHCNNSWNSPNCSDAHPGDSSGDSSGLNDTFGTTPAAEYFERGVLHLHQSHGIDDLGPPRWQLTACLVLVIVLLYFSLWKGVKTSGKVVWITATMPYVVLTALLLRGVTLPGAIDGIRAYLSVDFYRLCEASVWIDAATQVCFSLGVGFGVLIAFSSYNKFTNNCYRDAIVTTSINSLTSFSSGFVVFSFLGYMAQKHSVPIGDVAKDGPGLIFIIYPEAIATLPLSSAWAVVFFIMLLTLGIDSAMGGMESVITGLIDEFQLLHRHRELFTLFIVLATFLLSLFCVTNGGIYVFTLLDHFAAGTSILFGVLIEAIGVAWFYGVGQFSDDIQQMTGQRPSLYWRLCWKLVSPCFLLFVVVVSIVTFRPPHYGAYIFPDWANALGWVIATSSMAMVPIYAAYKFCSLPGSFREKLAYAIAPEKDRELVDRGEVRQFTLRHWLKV

[32] = biological target: T1, 5-hydroxytryptamine receptor 2A (Homo sapiens, UniProt P28223); assay: Displacement of [3H]ketanserin from human recombinant 5-HT2A receptor expressed in HEK293 cells at 10 uM after 60 mins by scintillation counting analysis; assay type: cell-based
T1 sequence (P28223 whole entry): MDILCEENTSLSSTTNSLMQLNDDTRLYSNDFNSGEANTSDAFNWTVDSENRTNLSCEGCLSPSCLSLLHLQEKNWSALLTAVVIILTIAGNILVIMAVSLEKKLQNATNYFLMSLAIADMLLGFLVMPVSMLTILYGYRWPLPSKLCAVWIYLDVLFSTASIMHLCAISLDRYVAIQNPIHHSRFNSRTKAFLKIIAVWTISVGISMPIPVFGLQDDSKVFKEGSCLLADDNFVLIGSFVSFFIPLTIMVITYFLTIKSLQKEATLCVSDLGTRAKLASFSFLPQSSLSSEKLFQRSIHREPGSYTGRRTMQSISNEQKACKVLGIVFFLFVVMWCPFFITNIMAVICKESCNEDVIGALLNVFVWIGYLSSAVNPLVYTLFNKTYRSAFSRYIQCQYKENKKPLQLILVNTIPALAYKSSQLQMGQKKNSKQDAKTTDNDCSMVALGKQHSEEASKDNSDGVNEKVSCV

[33] = biological target: Sodium-dependent noradrenaline transporter (Homo sapiens) (UniProt P23975); assay: Displacement of [3H]nisoxetine from human recombinant norepinephrine transporter expressed in CHO cells at 10 uM after 120 mins by scintillation counting analysis; assay type: cell-based
[34] = biological target: Cytochrome P450 2C19 (Homo sapiens, UniProt P33261); assay: Inhibition of CYP2C19 in human liver microsomes assessed as reduction in S-mephenytoin 4-hydroxylation by LC-MS/MS analysis; assay type: ADME
[35] = biological target: 5-hydroxytryptamine receptor 3A (Homo sapiens) (UniProt P46098); assay: Displacement of [3H]BRL 43694 from human recombinant 5-HT3 receptor expressed in CHO cells at 10 uM after 120 mins by scintillation counting analysis; assay type: cell-based
Sequence of 5-hydroxytryptamine receptor 3A (Homo sapiens) (P46098 whole entry): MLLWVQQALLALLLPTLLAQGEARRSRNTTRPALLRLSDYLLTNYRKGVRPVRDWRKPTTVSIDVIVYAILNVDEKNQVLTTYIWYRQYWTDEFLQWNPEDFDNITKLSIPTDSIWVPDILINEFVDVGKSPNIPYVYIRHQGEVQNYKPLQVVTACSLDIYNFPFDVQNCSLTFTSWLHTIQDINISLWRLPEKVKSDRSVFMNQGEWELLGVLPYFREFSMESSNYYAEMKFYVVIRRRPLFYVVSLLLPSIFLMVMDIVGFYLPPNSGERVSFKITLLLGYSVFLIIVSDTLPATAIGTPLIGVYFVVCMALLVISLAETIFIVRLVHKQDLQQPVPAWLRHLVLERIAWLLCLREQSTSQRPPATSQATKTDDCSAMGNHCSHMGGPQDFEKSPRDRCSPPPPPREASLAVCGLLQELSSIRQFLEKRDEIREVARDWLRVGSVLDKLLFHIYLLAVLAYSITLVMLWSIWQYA

[36] = Solubility of the compound at pH 7.4; assay type: physicochemical; conditions: buffer
[37] = biological target: T1, 5-hydroxytryptamine receptor 2A; assay: Antagonist activity at 5HT2A (unknown origin)
[38] = biological target: 5-hydroxytryptamine receptor 2B (Homo sapiens) (UniProt P41595); assay: Displacement of [3H]mesulergine from human recombinant 5-HT2B receptor expressed in CHO cells at 10 uM after 60 mins by scintillation counting analysis; assay type: cell-based
Sequence of 5-hydroxytryptamine receptor 2B (Homo sapiens) (P41595 whole entry): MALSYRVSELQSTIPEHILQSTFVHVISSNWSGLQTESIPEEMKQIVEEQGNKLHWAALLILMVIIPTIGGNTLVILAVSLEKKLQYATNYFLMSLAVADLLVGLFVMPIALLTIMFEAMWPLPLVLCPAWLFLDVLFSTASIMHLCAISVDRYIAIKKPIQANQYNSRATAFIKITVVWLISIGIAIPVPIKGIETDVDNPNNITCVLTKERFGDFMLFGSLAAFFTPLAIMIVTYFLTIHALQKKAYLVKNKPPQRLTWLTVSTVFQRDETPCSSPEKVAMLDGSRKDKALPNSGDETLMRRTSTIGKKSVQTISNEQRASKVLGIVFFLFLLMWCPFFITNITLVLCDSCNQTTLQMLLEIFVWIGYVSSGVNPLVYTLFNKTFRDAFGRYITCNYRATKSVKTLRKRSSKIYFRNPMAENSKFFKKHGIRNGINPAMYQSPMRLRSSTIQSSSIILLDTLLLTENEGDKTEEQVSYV

[39] = biological target: Histamine H1 receptor (Homo sapiens) (UniProt P35367); assay: Displacement of [3H]pyrilamine from human recombinant H1 receptor expressed in HEK293 cells at 10 uM after 60 mins by scintillation counting analysis; assay type: cell-based
[40] = tested on: Mus musculus; assay: Antipsychotic activity in mouse at 3 to 30 mg/kg, ip dosed 15 mins prior to testing by SmartCube automated system based method relative to standard compound; assay type: functional, organism-based

SMILES: Cc1sc2ccc(Cl)cc2c1C1C=CN=CN1.Cl (stereo not given)
minimal effective dose [1]: 3 mg/kg

SMILES: Cc1sc2ccccc2c1C1C=CN=CN1C.Cl (stereo not given)
minimal effective dose [1]: 30 mg/kg

SMILES: Cc1sc(C2C=CN=CN2)c(C)c1C.Cl (stereo not given)
minimal effective dose [1]: 30 mg/kg

SMILES: CC1=NC=CC(c2c(C)sc3ccccc23)N1.Cl (stereo not given)
minimal effective dose [1]: 30 mg/kg

Stability [2]: Unstable
Drug metabolism [3]: metabolite_notdetected
Drug metabolism [4]: metabolite_notdetected
Stability [5]: Stable
SMILES: Cc1csc(C2C=CN=CN2)c1C.Cl (stereo in doubt; 12a)
MED [1]: 3 mg/kg

SMILES: Brc1c(C2C=CN=CN2)sc2ccccc12 (stereo not given)
Activity [6]: Active

SMILES: Cc1sc2cc(Cl)ccc2c1C1C=CN=CN1.Cl (stereo not given)
minimal effective dose [1]: 30 mg/kg

IC50 [7]: 6.9 µM
inhibition [8]: 61%
IC50 [9]: 3.1 µM
half-life at 3 µM [10]: 0.483 h
Drug metabolism [11]: metabolite_notdetected
inhibition [12]: 77%
half-life at 3 µM [13]: 2.28 h
inhibition [14]: 0%
fraction unbound at 5 µM [15]: 0.18
inhibition [17]: 97%
Drug metabolism [18]: metabolite_notdetected
IC50 [19]: 11 µM
inhibition [21]: 94%
inhibition [22]: 94%
fraction unbound at 5 µM [23]: 0.3
half-life at 3 µM [24]: 4.03 h
Stability [2]: Stable
inhibition [27]: 88%
IC50 [30]: 6.9 µM
inhibition [31]: 78%
inhibition [32]: 99%
inhibition [33]: 51%
Stability [5]: Stable
IC50 [34]: 25 µM
inhibition [35]: 64%
solubility [36]: > 100 µg/mL
IC50 [37]: 0.356 µM
inhibition [38]: 81%
inhibition [39]: 86%
SMILES: Cc1sc2ccccc2c1[C@@H]1C=CN=CN1
Activity [6]: Active
Activity [16]: Toxic
Activity [20]: Active
Activity [25]: Active
Activity [26]: Non-toxic
IC50 [28]: > 25 µM
Activity [29]: Active

SMILES: Cl.Fc1sc2ccccc2c1C1NC=NC=C1Cl (stereo not given)
minimal effective dose [1]: 30 mg/kg

SMILES: Cc1c(C2C=CN=CN2)sc2ccccc12 (stereo not given)
Activity [6]: Active

SMILES: Cc1csc(C2C=CN=CN2)c1C (stereo in doubt; 12a)
Activity [40]: Active

SMILES: Cc1sc2ccccc2c1C1NC=Nc2cc(F)ccc21.Cl (stereo not given)
minimal effective dose [1]: 30 mg/kg

SMILES: Cl.Fc1ccc(-c2ccc(C3C=CN=CN3)s2)cc1 (stereo not given)
minimal effective dose [1]: 3 mg/kg

SMILES: CC1=CN=CNC1c1sc2ccccc2c1C (stereo not given)
Activity [6]: Active

SMILES: Cc1sc2ccccc2c1C1NC(N)=NC=C1Cl.Cl (stereo not given)
minimal effective dose [1]: 30 mg/kg

SMILES: CC1=NC=C(Cl)C(c2sc3ccccc3c2C)N1 (stereo not given)
Activity [6]: Active
